Data published in patent publication US9249125B2, “Pyrazole derivatives as p38 MAP inhibitors” (RESPIVERT LIMITED, priority 2012, dated 2016).
pEC50, pIC50: −log10 of the molar value.

Key:
Syk = Syk (Homo sapiens (Human), UniProt P43405); test: Syk enzyme inhibition (FRET, Z-LYTE); assay type: biochemical
Procedure, shortened: (§1)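 Z-LYTE FRET kinase assay: enzyme (3000 or 2000 ng/mL stock, respectively) preincubated 2 h at RT with compound (4–0.004 μg/mL stocks), then FRET peptide plus ATP (800 μM stock for c-Src, 60 μM for Syk) added for 1 h. Protease development 1 h; phosphorylation from coumarin/fluorescein emission ratio.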

[1] = test system: Poly I:C-induced ICAM-1 expression in BEAS2B cells; test: Poly I:C-induced ICAM-1 expression in BEAS2B cells; assay type: cell-based; conditions: Homo sapiens, BEAS-2B, read-out: Poly IC induced ICAM1 in BEAS2B IC50
Procedure, shortened: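 BEAS2B human bronchial epithelial cells pre-incubated with compound for 2 hr, then transfected with 1 μg/mL poly I:C plus Oligofectamine. At 18 hr, surface ICAM-1 measured by cell-based ELISA (HRP, OD450–655). Signal corrected for cell number by crystal violet OD595.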

GSK3α = GSK3α (Homo sapiens (Human), UniProt P49840); test: GSK 3α enzyme inhibition (FRET, Z-LYTE); assay type: biochemical
GSK3α, sequence (P49840 whole entry): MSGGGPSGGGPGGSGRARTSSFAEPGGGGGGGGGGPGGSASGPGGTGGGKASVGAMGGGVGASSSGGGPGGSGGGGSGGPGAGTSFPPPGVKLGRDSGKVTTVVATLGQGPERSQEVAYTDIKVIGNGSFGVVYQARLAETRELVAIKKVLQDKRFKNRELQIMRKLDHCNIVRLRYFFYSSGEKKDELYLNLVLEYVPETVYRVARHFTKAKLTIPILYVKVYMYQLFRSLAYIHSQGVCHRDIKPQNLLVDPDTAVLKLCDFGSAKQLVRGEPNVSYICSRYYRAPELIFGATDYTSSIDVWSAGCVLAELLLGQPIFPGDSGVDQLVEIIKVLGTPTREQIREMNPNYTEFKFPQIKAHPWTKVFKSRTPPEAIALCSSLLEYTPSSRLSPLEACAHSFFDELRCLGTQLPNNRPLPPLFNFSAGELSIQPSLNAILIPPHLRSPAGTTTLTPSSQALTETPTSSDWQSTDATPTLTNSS
Procedure, shortened: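 GSK3α (500 ng/mL stock) was preincubated 2 hr at RT with compound (4 to 0.004 μg/mL stocks), then FRET peptide (8 μM stock) and ATP (40 μM stock) added for 1 hr. Protease development for 1 hr cleaved unphosphorylated peptide; coumarin/fluorescein emission ratio reported phosphorylation.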

[2] = test system: LPS-induced IL-8 release in d-U937 cells; test: LPS-induced IL-8 release in d-U937 cells; assay type: cell-based; conditions: Homo sapiens, dU937, read-out: LPS Induced Release of Cytokine in d-937 Cells IL-8 IC50
Procedure, shortened: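 PMA (100 ng/mL, 48–72 hr)-differentiated U937; cpd 2 hr pre-inc; LPS 0.1 μg/mL (E. coli O111:B4) 4 hr. Supernatant TNFα/IL-8 by sandwich ELISA. IL-8 inhibition per concentration vs vehicle; REC50 from curve fit.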

[3] = test system: LPS-induced TNFα release in d-U937 cells; test: LPS-induced TNFα release in d-U937 cells; assay type: cell-based; conditions: Homo sapiens, dU937, relative to 10 μg/mL BIRB796, read-out: LPS Induced Release of Cytokine in d-937 Cells TNFα REC50
Procedure, shortened: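 Human monocytic U937 cells were differentiated to macrophage-type cells with PMA (100 ng/mL) for 48 to 72 hr, pre-treated with test compound for 2 hr, then stimulated 4 hr with E. coli O111:B4 LPS (0.1 μg/mL). Supernatant TNFα and IL-8 were measured by sandwich ELISA; REC50 came from concentration-response curves.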

cSrc = cSrc (Homo sapiens (Human), UniProt P12931); test: c-Src enzyme inhibition (FRET, Z-LYTE); assay type: biochemical
cSrc, sequence (P12931 whole entry, looked up): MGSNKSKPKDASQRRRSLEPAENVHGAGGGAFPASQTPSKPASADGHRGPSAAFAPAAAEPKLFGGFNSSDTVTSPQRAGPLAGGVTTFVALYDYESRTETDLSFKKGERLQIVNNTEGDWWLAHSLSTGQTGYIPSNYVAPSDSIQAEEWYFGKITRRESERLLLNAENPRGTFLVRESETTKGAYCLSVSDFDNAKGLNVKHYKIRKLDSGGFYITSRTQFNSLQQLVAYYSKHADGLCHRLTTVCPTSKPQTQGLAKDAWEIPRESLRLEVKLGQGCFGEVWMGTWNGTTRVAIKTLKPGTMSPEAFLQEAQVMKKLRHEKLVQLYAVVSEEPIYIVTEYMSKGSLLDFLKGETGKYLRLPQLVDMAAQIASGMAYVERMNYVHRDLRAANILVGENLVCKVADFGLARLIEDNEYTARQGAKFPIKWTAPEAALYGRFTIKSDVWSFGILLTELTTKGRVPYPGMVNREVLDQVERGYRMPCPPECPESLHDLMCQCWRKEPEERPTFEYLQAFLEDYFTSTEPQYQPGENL
Procedure, shortened: as §1

d-U937 cells = test: Cell viability: MTT assay; assay type: cell-based, human; conditions: 1 μg/mL
Procedure, shortened: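 Differentiated U937 cells were exposed to compound at 1 or 10 μg/mL either 4 h in 5% FCS RPMI1640 or 24 h in 10% FCS RPMI1640, then given MTT for 1 h, DMSO-solubilised and read at 550 nm. Percent viability loss versus 0.5% DMSO vehicle; apparent gains appear negative.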

p38 MAPKα = p38 MAPKα (Homo sapiens (Human), UniProt Q16539); test: p38 MAPKα enzyme inhibition (FRET, Z-LYTE); assay type: biochemical
p38 MAPKα, sequence (Q16539 whole entry): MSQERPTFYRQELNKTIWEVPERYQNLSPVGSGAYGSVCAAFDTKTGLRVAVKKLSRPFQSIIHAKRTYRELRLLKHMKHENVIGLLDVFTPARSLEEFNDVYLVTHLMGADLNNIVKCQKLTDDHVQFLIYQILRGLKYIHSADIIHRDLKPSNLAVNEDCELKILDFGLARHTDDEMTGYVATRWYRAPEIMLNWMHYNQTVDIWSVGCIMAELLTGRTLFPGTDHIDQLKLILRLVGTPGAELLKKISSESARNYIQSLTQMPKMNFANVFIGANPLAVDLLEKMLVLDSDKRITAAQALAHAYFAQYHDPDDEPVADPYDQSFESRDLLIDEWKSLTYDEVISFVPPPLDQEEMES

Row | SMILES | pIC50 (Syk) | pIC50 (GSK3α) | pIC50 [2] | pEC50 [3] | pIC50 (cSrc) | pIC50 (p38 MAPKα) | pIC50 [1] | MTT Assay Cell viability at time point in d-U937 cells 4 h (d-U937 cells) | MTT Assay Cell viability at time point in d-U937 cells 24 h (d-U937 cells)
1 | CC(C)(C)c1cc(NC(=O)Nc2ccc(Oc3ccnc(Nc4ccc5[nH]ncc5c4)n3)c3ccccc23)n(-c2cccc(CN3CCCC3=O)c2)n1 [Example 49, 1-(4-((2-((1H-indazol-5-yl)amino)pyrimidin-4-yl)oxy)naphthalen-1-yl)-3-(3-(tert-butyl)-1-(3-((2-oxopyrrolidin-1-yl)methyl)phenyl)-1H-pyrazol-5-yl)urea] | 7.92 | 5.87 | 8.01 | 8.60 | 8.30 | 7.54 | 8.66 | −ve (−ve and +ve indicate that the value is below and above respectively, the no significant effect threshold, defined as 30% inhibition at 1 μg/mL at the time point indicated.) | −ve (−ve and +ve indicate that the value is below and above respectively, the no significant effect threshold, defined as 30% inhibition at 1 μg/mL at the time point indicated.)
2 | CC(C)(C)c1cc(NC(=O)Nc2ccc(Oc3ccnc(Nc4ccc5[nH]ccc5c4)n3)c3ccccc23)n(-c2cccc(CN3CCCC3=O)c2)n1 [Example 48, 1-(4-((2-((1H-indol-5-yl)amino)pyrimidin-4-yl)oxy)naphthalen-1-yl)-3-(3-(tert-butyl)-1-(3-((2-oxopyrrolidin-1-yl)methyl)phenyl)-1H-pyrazol-5-yl)urea] | 7.74 | < 5.85 | 7.78 | 8.28 | 8.40 | 7.15 | 8.16 | −ve (−ve and +ve indicate that the value is below and above respectively, the no significant effect threshold, defined as 30% inhibition at 1 μg/mL at the time point indicated.) | −ve (−ve and +ve indicate that the value is below and above respectively, the no significant effect threshold, defined as 30% inhibition at 1 μg/mL at the time point indicated.)
3 | COc1ccc(-n2nc(C(C)(C)C)cc2NC(=O)Nc2ccc(Oc3ccnc(Nc4ccc5[nH]nc(OCCN6CCOCC6)c5c4)n3)c3ccccc23)cc1 [Example 45, 1-(3-(tert-butyl)-1-(4-methoxyphenyl)-1H-pyrazol-5-yl)-3-(4-((2-((3-(2-morpholinoethoxy)-1H-indazol-5-yl)amino)pyrimidin-4-yl)oxy)naphthalen-1-yl)urea] | 8.52 | 6.39 | 8.80 | 9.05 | 8.30 | 7.77 | 8.92 | −ve (−ve and +ve indicate that the value is below and above respectively, the no significant effect threshold, defined as 30% inhibition at 1 μg/mL at the time point indicated.) | −ve (−ve and +ve indicate that the value is below and above respectively, the no significant effect threshold, defined as 30% inhibition at 1 μg/mL at the time point indicated.)
4 | CC(C)(C)c1cc(NC(=O)Nc2ccc(Oc3ccnc(Nc4ccc5c(c4)NC(=O)C5(C)C)n3)c3ccccc23)n(-c2ccc(OCCN3CCOCC3)cc2)n1 [Example 62, 1-(3-(tert-butyl)-1-(4-(2-morpholinoethoxy)phenyl)-1H-pyrazol-5-yl)-3-(4-((2-((3,3-dimethyl-2-oxoindolin-6-yl)amino)pyrimidin-4-yl)oxy)naphthalen-1-yl)urea] | 8.05 | 5.77 | 7.64 | 8.14 | 8.30 | 7.01 | 7.94 | −ve (−ve and +ve indicate that the value is below and above respectively, the no significant effect threshold, defined as 30% inhibition at 1 μg/mL at the time point indicated.) | −ve (−ve and +ve indicate that the value is below and above respectively, the no significant effect threshold, defined as 30% inhibition at 1 μg/mL at the time point indicated.)

More lines, main results first:

Row | pIC50 (Syk) | pIC50 (GSK3α) | pIC50 [2] | pEC50 [3] | pIC50 (cSrc) | pIC50 (p38 MAPKα) | SMILES | pIC50 [1] | MTT Assay Cell viability at time point in d-U937 cells 4 h (d-U937 cells) | MTT Assay Cell viability at time point in d-U937 cells 24 h (d-U937 cells)
5 | 7.48 | 5.62 | 8.13 | 8.33 | 8.10 | 6.86 | CC(C)(C)c1cc(NC(=O)Nc2ccc(Oc3ccnc(Nc4ccc5sncc5c4)n3)c3ccccc23)n(-c2ccc(OCCN3CCOCC3)cc2)n1 [Example 78, 1-(4-((2-(benzo[d]isothiazol-5-ylamino)pyrimidin-4-yl)oxy)naphthalen-1-yl)-3-(3-(tert-butyl)-1-(4-(2-morpholinoethoxy)phenyl)-1H-pyrazol-5-yl)urea] | 8.10 | −ve (−ve and +ve indicate that the value is below and above respectively, the no significant effect threshold, defined as 30% inhibition at 1 μg/mL at the time point indicated.) | −ve (−ve and +ve indicate that the value is below and above respectively, the no significant effect threshold, defined as 30% inhibition at 1 μg/mL at the time point indicated.)
6 | > 9.00 | 5.52 | 9.52 | 8.82 | > 9.00 | 8.30 | CC(C)(C)c1cc(NC(=O)Nc2ccc(Oc3ccnc(Nc4ccc5[nH]ncc5c4)c3)c3ccccc23)n(-c2ccc(OCCN3CCOCC3)cc2)n1 [Example 67] | 8.60 | −ve (−ve and +ve indicate that the value is below and above respectively, the no significant effect threshold, defined as 30% inhibition at 1 μg/mL at the time point indicated.) | −ve (−ve and +ve indicate that the value is below and above respectively, the no significant effect threshold, defined as 30% inhibition at 1 μg/mL at the time point indicated.)
7 | 7.72 | 5.55 | 7.80 | 8.19 | 7.82 | 6.47 | Cc1cc2cc(Nc3nccc(Oc4ccc(NC(=O)Nc5cc(C(C)(C)C)nn5-c5ccc(OCCN6CCOCC6)cc5)c5ccccc45)n3)ccc2[nH]1 [Example 66, 1-(3-(tert-butyl)-1-(4-(2-morpholinoethoxy)phenyl)-1H-pyrazol-5-yl)-3-(4-((2-((2-methyl-1H-indol-5-yl)amino)pyrimidin-4-yl)oxy)naphthalen-1-yl)urea] | 8.16 | −ve (−ve and +ve indicate that the value is below and above respectively, the no significant effect threshold, defined as 30% inhibition at 1 μg/mL at the time point indicated.) | −ve (−ve and +ve indicate that the value is below and above respectively, the no significant effect threshold, defined as 30% inhibition at 1 μg/mL at the time point indicated.)
8 | 7.47 | 6.11 | 9.52 | 7.90 | 7.82 | 7.32 | CC(C)(C)c1cc(NC(=O)Nc2ccc(Oc3ccnc(Nc4ccc5oc(=O)[nH]c5c4)n3)c3ccccc23)n(-c2ccc(OCCN3CCOCC3)cc2)n1 [Example 76, 1-(3-(tert-butyl)-1-(4-(2-morpholinoethoxy)phenyl)-1H-pyrazol-5-yl)-3-(4-((2-((2-oxo-2,3-dihydrobenzo[d]oxazol-5-yl)amino)pyrimidin-4-yl)oxy)naphthalen-1-yl)urea] | 8.66 | −ve (−ve and +ve indicate that the value is below and above respectively, the no significant effect threshold, defined as 30% inhibition at 1 μg/mL at the time point indicated.) | −ve (−ve and +ve indicate that the value is below and above respectively, the no significant effect threshold, defined as 30% inhibition at 1 μg/mL at the time point indicated.)
